≈ marks a conversion by molar mass, not a printed value. Calls of active or inactive are those of the source. No cut-off for these calls is given here.
Experiments:
[1] = system: K562; experiment: Induction of apoptosis in human K562 cells assessed as down regulation of c-Myc at 2 ug/ml after 3 hrs by Western blot analysis; type: functional, cell-based
[2] = system: K562; experiment: Induction of apoptosis in human K562 cells assessed as viable cells at 2 ug/ml using annexin-V-FITC and propidium iodide staining by flow cytometry (reference value: 93.69%); type: functional, cell-based; details: TDE = time-dependent effect
[3] = system: K562; experiment: Induction of apoptosis in human K562 cells assessed as effect on Bcl-XL expression at 2 ug/ml after 4 hrs by Western blot analysis; type: functional, cell-based
[4] = system: K562; experiment: Induction of apoptosis in human K562 cells assessed as cell survival at 1 ug/ml after 6 hrs using annexin-V-FITC and propidium iodide staining by flow cytometry (reference value: 97.89%); type: functional; details: K562, 6 h, read-out: Activity
[5] = system: K562; experiment: Induction of apoptosis in human K562 cells assessed as viable cells after 3 hrs using annexin-V-FITC and propidium iodide staining by flow cytometry (reference value: 93.69%); type: functional, cell-based
[6] = system: K562; experiment: Induction of apoptosis in human K562 cells assessed as cell survival at 1 ug/ml after 2 hrs using annexin-V-FITC and propidium iodide staining by flow cytometry (reference value: 97.89%); type: functional; details: K562, 2 h, read-out: Activity
[7] = system: K562; experiment: Induction of apoptosis in human K562 cells assessed as viable cells at 0.5 ug/ml after 5 hrs using annexin-V-FITC and propidium iodide staining by flow cytometry (reference value: 99.86%); type: functional; details: K562, 5 h, read-out: Activity
[8] = system: K562; experiment: Induction of apoptosis in human K562 cells assessed as cell survival at 1 ug/ml after 1 hr using annexin-V-FITC and propidium iodide staining by flow cytometry (reference value: 97.89%); type: functional; details: K562, 1 h, read-out: Activity
[9] = system: Bacillus subtilis; experiment: Antimicrobial activity against Bacillus subtilis ATCC 6051; type: functional
[10] = system: K562; experiment: Induction of apoptosis in human K562 cells assessed as cell survival at 4 ug/ml after 5 hrs using annexin-V-FITC and propidium iodide staining by flow cytometry (reference value: 97.96%); type: functional; details: K562, 5 h, read-out: Activity
[11] = system: K562; experiment: Induction of apoptosis in human K562 cells assessed as […] of Bcl-2 at 2 ug/ml after 4 hrs by Western blot analysis; type: functional, cell-based
[12] = system: K562; experiment: Induction of apoptosis in human K562 cells assessed as viable cells at 1 ug/ml after 5 hrs using annexin-V-FITC and propidium iodide staining by flow cytometry (reference value: 99.86%); type: functional; details: K562, 5 h, read-out: Activity
[13] = system: K562; experiment: Induction of apoptosis in human K562 cells assessed as cell survival at 0.5 ug/ml after 5 hrs using annexin-V-FITC and propidium iodide staining by flow cytometry (reference value: 97.96%); type: functional; details: K562, 5 h, read-out: Activity
[14] = system: Pseudomonas aeruginosa; experiment: Antimicrobial activity against Pseudomonas aeruginosa PAO1; type: functional
[15] = system: Staphylococcus aureus; experiment: Antimicrobial activity against Staphylococcus aureus ATCC 6538; type: functional
[16] = system: K562; experiment: Induction of apoptosis in human K562 cells assessed as viable cells at 2 ug/ml after 5 hrs using annexin-V-FITC and propidium iodide staining by flow cytometry (reference value: 99.86%); type: functional; details: K562, 5 h, read-out: Activity
[17] = system: Candida albicans; experiment: Antimicrobial activity against Candida albicans SC5314; type: functional
[18] = system: HepG2; experiment: Cytotoxicity against human HepG2 cells after 48 hrs by MTT assay; type: functional, cell-based; details: HepG2, 48 h
[19] = system: K562; experiment: Induction of apoptosis in human K562 cells assessed as cell survival at 0.75 ug/ml after 5 hrs using annexin-V-FITC and propidium iodide staining by flow cytometry (reference value: 97.96%); type: functional; details: K562, 5 h, read-out: Activity
[20] = system: K562; experiment: Induction of apoptosis in human K562 cells assessed as viable cells at 2 ug/ml after 3 hrs using annexin-V-FITC and propidium iodide staining by flow cytometry (reference value: 93.69%); type: functional; details: K562, 3 h, read-out: Activity
[21] = system: K562; experiment: Induction of apoptosis in human K562 cells assessed as viable cells at 4 ug/ml after 5 hrs using annexin-V-FITC and propidium iodide staining by flow cytometry (reference value: 99.86%); type: functional; details: K562, 5 h, read-out: Activity
[22] = system: K562; experiment: Induction of apoptosis in human K562 cells assessed as cell survival at 1 ug/ml after 4 hrs using annexin-V-FITC and propidium iodide staining by flow cytometry (reference value: 97.89%); type: functional; details: K562, 4 h, read-out: Activity
[23] = system: K562; experiment: Cytotoxicity against human K562 cells after 48 hrs by MTT assay; type: functional, cell-based; details: K562, 48 h
[24] = system: K562; experiment: Induction of apoptosis in human K562 cells assessed as cell survival at 1 ug/ml after 5 hrs using annexin-V-FITC and propidium iodide staining by flow cytometry (reference value: 97.96%); type: functional; details: K562, 5 h, read-out: Activity
[25] = system: K562; experiment: Induction of apoptosis in human K562 cells assessed as cell survival at 1 ug/ml after 8 hrs using annexin-V-FITC and propidium iodide staining by flow cytometry (reference value: 97.89%); type: functional; details: K562, 8 h, read-out: Activity
[26] = system: K562; experiment: Induction of apoptosis in human K562 cells assessed as viable cells at 0.75 ug/ml after 5 hrs using annexin-V-FITC and propidium iodide staining by flow cytometry (reference value: 99.86%); type: functional; details: K562, 5 h, read-out: Activity
[27] = system: K562; experiment: Induction of apoptosis in human K562 cells assessed as cell survival at 0.25 ug/ml after 5 hrs using annexin-V-FITC and propidium iodide staining by flow cytometry (reference value: 97.96%); type: functional; details: K562, 5 h, read-out: Activity
[28] = system: K562; experiment: Induction of apoptosis in human K562 cells assessed as cell survival at 2 ug/ml after 5 hrs using annexin-V-FITC and propidium iodide staining by flow cytometry (reference value: 97.96%); type: functional; details: K562, 5 h, read-out: Activity
[29] = system: Staphylococcus aureus; experiment: Antimicrobial activity against methicillin-resistant Staphylococcus aureus; type: functional

## CC(C)=C[C@H]1C[C@H](C)[C@]2(CC[C@]3(C)C[C@@H]4C(C)=CC(=O)[C@]4(O)/C(C=O)=C\C[C@H]32)O1
[1]
  Activity: Active
[2]
  Activity: tde
[3]
  Activity: inactive
[4]
  viability at 1 µg/mL: 27.5%
[5]
  Activity: Dose-dependent effect
[6]
  viability at 1 µg/mL: 69.7%
[7]
  viability at 0.5 µg/mL: 87.5%
[8]
  viability at 1 µg/mL: 91.3%
[9]
  MIC: 12.5 µg/mL (≈ 31.4 µM)
[10]
  viability at 4 µg/mL: 2.45%
[11]
  Activity: Active
[12]
  viability at 1 µg/mL: 49.6%
[13]
  viability at 0.5 µg/mL: 88.3%
[14]
  MIC: > 100 µg/mL
[15]
  MIC: 12.5 µg/mL (≈ 31.4 µM)
[16]
  viability at 2 µg/mL: 25.9%
[17]
  MIC: 50 µg/mL (≈ 125 µM)
[18]
  IC50: 6.49 µM
[19]
  viability at 0.75 µg/mL: 61.5%
[20]
  viability at 2 µg/mL: 32.6%
[21]
  viability at 4 µg/mL: 1.78%
[22]
  viability at 1 µg/mL: 56%
[23]
  IC50: 4.06 µM
[24]
  viability at 1 µg/mL: 50.2%
[25]
  viability at 1 µg/mL: 5.86%
[26]
  viability at 0.75 µg/mL: 62.8%
[27]
  viability at 0.25 µg/mL: 96.6%
[28]
  viability at 2 µg/mL: 26.9%
[29]
  MIC: 12.5 µg/mL (≈ 31.4 µM)

## CC(C)=C[C@H]1C[C@H](C)[C@]2(CC[C@]3(C)C[C@@H]4C(C)=CC(=O)[C@@H]4/C(C=O)=C\C[C@H]32)O1
[9]
  MIC: > 100 µg/mL
[14]
  MIC: > 100 µg/mL
[15]
  MIC: > 100 µg/mL
[17]
  MIC: > 100 µg/mL
[18]
  IC50: 55.7 µM
[23]
  IC50: 39.5 µM
[29]
  MIC: > 100 µg/mL

## CC(=O)N1CCN(c2ccc(OCC3COC(Cn4ccnc4)(c4ccc(Cl)cc4Cl)O3)cc2)CC1 (configuration not stated) [KETOCONAZOLE]
[17]
  MIC: 0.02 µg/mL (≈ 0.0376 µM)

## COc1cc([C@@H]2c3cc4c(cc3[C@@H](O[C@@H]3O[C@@H]5CO[C@@H](C)O[C@H]5[C@H](O)[C@H]3O)[C@H]3COC(=O)[C@H]23)OCO4)cc(OC)c1O [ETOPOSIDE]
[18]
  IC50: 6.41 µM

## CN[C@H](CC(C)C)C(=O)N[C@H]1C(=O)N[C@@H](CC(N)=O)C(=O)N[C@H]2C(=O)N[C@H]3C(=O)N[C@H](C(=O)N[C@H](C(=O)O)c4cc(O)cc(O)c4-c4cc3ccc4O)[C@H](O)c3ccc(c(Cl)c3)Oc3cc2cc(c3O[C@@H]2O[C@H](CO)[C@@H](O)[C@H](O)[C@H]2O[C@H]2C[C@](C)(N)[C@H](O)[C@H](C)O2)Oc2ccc(cc2Cl)[C@H]1O [VANCOMYCIN]
[9]
  MIC: 0.5 µg/mL (≈ 0.345 µM)

## CC(C)=C[C@H]1C[C@H](C)[C@]2(CC[C@]3(C)C[C@@H]4C(C)=CC(=O)[C@H]4/C(C=O)=C\C[C@H]32)O1 [3-ANHYDRO-6-EPI-OPHIOBOLIN A]
[9]
  MIC: > 100 µg/mL
[14]
  MIC: > 100 µg/mL
[15]
  MIC: > 100 µg/mL
[17]
  MIC: > 100 µg/mL
[18]
  IC50: 47.1 µM
[23]
  IC50: 35.6 µM
[29]
  MIC: > 100 µg/mL

## O=C(O)c1cn(C2CC2)c2cc(N3CCNCC3)c(F)cc2c1=O [CIPROFLOXACIN]
[14]
  MIC: 1 µg/mL (≈ 3.02 µM)

Reference: ChEMBL document CHEMBL2390897, “3-Anhydro-6-hydroxy-ophiobolin A, a new sesterterpene inhibiting the growth of methicillin-resistant Staphylococcus aureus and inducing the cell death by apoptosis on K562, from the phytopathogenic fungus Bipolaris oryzae” (Bioorg Med Chem Lett, 2013)
